Results as given in patent publication US9095136B2, “2-IODO imidazole-derivatives” (BAYER INTELLECTUAL PROPERTY GMBH, priority 2011, dated 2015).

What was measured:
Type in all cases: in vivo
Septoria tritici = experiment: Example Z: Septoria tritici test (wheat)/protective, comparison; details: protective, application rate 250 ppm, evaluation 21 days after inoculation
Description: Solvent: 49 parts by weight of N,N-dimethylacetamide Emulsifier: 1 part by weight of alkylaryl polyglycol ether To produce a suitable preparation of active compound, 1 part by weight of active compound or active compound combination is mixed with the stated amounts of solvent and emulsifier, and the concentrate is diluted with water to the desired concentration. To test for protective activity, young plants are sprayed with the preparation of active compound or active compound combination at the stated application rate. After the spray coating has dried on, the plants are sprayed with a spore suspension of Septoria tritici.

Uromyces appendiculatus = experiment: Example Y: Uromyces test (beans)/protective, comparison; details: protective, application rate 10 ppm, evaluation 10 days after inoculation
Description: Solvents: 24.5 parts by weight of acetone • 24.5 parts by weight of dimethylacetamide Emulsifier: 1 part by weight of alkylaryl polyglycol ether To produce a suitable preparation of active compound, 1 part by weight of active compound is mixed with the stated amounts of solvent and emulsifier, and the concentrate is diluted with water to the desired concentration. To test for protective activity, young plants are sprayed with the preparation of active compound at the stated application rate. […] The plants are then placed in a greenhouse at about 21° C. and a relative atmospheric humidity of about 90%.

Puccinia recondita = experiment: Example X: Puccinia test (wheat)/protective, comparison; details: protective, application rate 500 ppm, evaluation 7-9 days after inoculation
Description: Solvent: 49 parts by weight of N,N-dimethylformamide Emulsifier: 1 part by weight of alkylaryl polyglycol ether To produce a suitable preparation of active compound, 1 part by weight of active compound is mixed with the stated amounts of solvent and emulsifier, and the concentrate is diluted with water to the desired concentration. To test for protective activity, young plants are sprayed with the preparation of active compound at the stated application rate. One day after this treatment, the plants are inoculated with an aqueous spore suspension of Puccinia recondita.

Pyricularia oryzae = details: rice, protective, 500 ppm, evaluation 7 days after inoculation

OC(Cc1ccc(F)cc1)(Cn1ccnc1)C1(Cl)CC1 (centres unmarked) [drawing 21, reference compound]
Efficacy in % (Septoria tritici): 43%

OC(Cc1ccc(F)cc1)(Cn1ccnc1)C1(Cl)CC1 (centres unmarked) [drawing 19, reference compound]
Efficacy in % (Uromyces appendiculatus): 65%

CC(C)(C)C(O)(CCc1ccc(Cl)cc1)Cn1ccnc1 (centres unmarked) [reference compound]
Efficacy in % (Puccinia recondita): 70%

CC(C)(C)C(O)(CCc1ccc(Cl)cc1)Cn1ccnc1I (centres unmarked) [Example 4]
Eff. % (Pyricularia oryzae): 80%
Efficacy in % (Puccinia recondita): 95%
